Reference: the supplement of paper PMC10307832

Experiments:
Assay in all cases: relative viability (nuclei count vs DMSO), 5 days (fraction); higher = more cells survive
NCI-H1734 = test system: NCI-H1734
How it was run: (§1)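 For relative viability, nuclei counts in treated wells were divided by those in vehicle wells. Lung cancer cell lines had been pin-tool dosed in 1536-well plates the day after seeding and cultured for 5 days, then fixed and stained in one step (final 0.05% Triton X-100, 1% formaldehyde, 1 ug/ml Hoechst) and imaged at 4×. Doses were one drug alone or a fixed anchor-drug dose plus five library-drug doses (not always all listed) in √10 steps, and values are duplicate-plate medians.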

NCI-H1437 = test system: NCI-H1437
How it was run: as §1

SK-MES-1 = test system: SK-MES-1
How it was run: as §1

NCI-H647 = test system: NCI-H647
How it was run: as §1

NCI-H1792 = test system: NCI-H1792
How it was run: as §1

LC-2-ad = test system: LC-2-ad
How it was run: as §1

EKVX = test system: EKVX
How it was run: as §1

HARA = test system: HARA
How it was run: as §1

NCI-H2009 = test system: NCI-H2009
How it was run: as §1

NCI-H2405 = test system: NCI-H2405
How it was run: as §1

BEN = test system: BEN
How it was run: as §1

SK-LU-1 = test system: SK-LU-1
How it was run: as §1

HCC-44 = test system: HCC-44
How it was run: as §1

NCI-H2228 = test system: NCI-H2228
How it was run: as §1

NCI-H2170 = test system: NCI-H2170
How it was run: as §1

HCC-827 = test system: HCC-827
How it was run: as §1

LOU-NH91 = test system: LOU-NH91
How it was run: as §1

NCI-H2087 = test system: NCI-H2087
How it was run: as §1

NCI-H1355 = test system: NCI-H1355
How it was run: as §1

HCC-366 = test system: HCC-366
How it was run: as §1

NCI-H596 = test system: NCI-H596
How it was run: as §1

NCI-H2342 = test system: NCI-H2342
How it was run: as §1

NCI-H1395 = test system: NCI-H1395
How it was run: as §1

NCI-H661 = test system: NCI-H661
How it was run: as §1

Work on `Clc1ccc(Nc2nnc(Cc3ccncc3)c3ccccc23)cc1` [Vatalanib] + Nc1nc2[nH]cc(CCc3ccc(C(=O)N[C@@H](CCC(=O)O)C(=O)O)cc3)c2c(=O)[nH]1 [Pemetrexed] (partner 0.2 µM) yielded a relative viability (NCI-H1734; first compound 0.04 µM) of 0.401, a relative viability (NCI-H1734; first compound 0.1265 µM) of 0.42 and a relative viability (NCI-H1734; first compound 0.4 µM) of 0.414. The relative viability (NCI-H1734; first compound 1.265 µM) was 0.427, the relative viability (NCI-H1734; first compound 4 µM) was 0.379 and the relative viability (NCI-H1437; first compound 0.04 µM) was 0.33. For the same molecule, the relative viability (NCI-H1437; first compound 0.1265 µM) was 0.342, the relative viability (NCI-H1437; first compound 0.4 µM) was 0.328 and the relative viability (NCI-H1437; first compound 1.265 µM) was 0.26. It also gave a relative viability (NCI-H1437; first compound 4 µM) of 0.275, a relative viability (SK-MES-1; first compound 0.04 µM) of 0.905 and a relative viability (SK-MES-1; first compound 0.1265 µM) of 0.925. It also gave a relative viability (SK-MES-1; first compound 0.4 µM) of 1.05, a relative viability (SK-MES-1; first compound 1.265 µM) of 0.912 and a relative viability (SK-MES-1; first compound 4 µM) of 0.787. The relative viability (NCI-H647; first compound 0.04 µM) was 0.192, the relative viability (NCI-H647; first compound 0.1265 µM) was 0.163 and the relative viability (NCI-H647; first compound 0.4 µM) was 0.163. It also gave a relative viability (NCI-H647; first compound 1.265 µM) of 0.187, a relative viability (NCI-H647; first compound 4 µM) of 0.19 and a relative viability (NCI-H1792; first compound 0.04 µM) of 0.902. It also gave a relative viability (NCI-H1792; first compound 0.1265 µM) of 0.781, a relative viability (NCI-H1792; first compound 0.4 µM) of 0.771 and a relative viability (NCI-H1792; first compound 1.265 µM) of 0.817. It also gave a relative viability (NCI-H1792; first compound 4 µM) of 0.699, a relative viability (LC-2-ad; first compound 0.04 µM) of 0.267 and a relative viability (LC-2-ad; first compound 0.1265 µM) of 0.27. It also gave a relative viability (LC-2-ad; first compound 0.4 µM) of 0.275, a relative viability (LC-2-ad; first compound 1.265 µM) of 0.267 and a relative viability (LC-2-ad; first compound 4 µM) of 0.288. The relative viability (EKVX; first compound 0.04 µM) was 0.416, the relative viability (EKVX; first compound 0.1265 µM) was 0.425 and the relative viability (EKVX; first compound 0.4 µM) was 0.393. For the same molecule, the relative viability (EKVX; first compound 1.265 µM) was 0.339, the relative viability (EKVX; first compound 4 µM) was 0.365 and the relative viability (HARA; first compound 0.04 µM) was 0.225. For the same molecule, the relative viability (HARA; first compound 0.1265 µM) was 0.265, the relative viability (HARA; first compound 0.4 µM) was 0.252 and the relative viability (HARA; first compound 1.265 µM) was 0.232. The relative viability (HARA; first compound 4 µM) was 0.256, the relative viability (NCI-H2009; first compound 0.04 µM) was 0.975 and the relative viability (NCI-H2009; first compound 0.1265 µM) was 0.971. For the same molecule, the relative viability (NCI-H2009; first compound 0.4 µM) was 1.09, the relative viability (NCI-H2009; first compound 1.265 µM) was 1.01 and the relative viability (NCI-H2009; first compound 4 µM) was 0.974. It also gave a relative viability (NCI-H2405; first compound 0.04 µM) of 1.04, a relative viability (NCI-H2405; first compound 0.1265 µM) of 1.04 and a relative viability (NCI-H2405; first compound 0.4 µM) of 0.981. It also gave a relative viability (NCI-H2405; first compound 4 µM) of 1.01, a relative viability (BEN; first compound 0.04 µM) of 0.662 and a relative viability (BEN; first compound 0.1265 µM) of 0.659. It also gave a relative viability (BEN; first compound 0.4 µM) of 0.443, a relative viability (BEN; first compound 1.265 µM) of 0.681 and a relative viability (BEN; first compound 4 µM) of 0.743. For the same molecule, the relative viability (SK-LU-1; first compound 0.04 µM) was 0.966, the relative viability (SK-LU-1; first compound 0.1265 µM) was 0.881 and the relative viability (SK-LU-1; first compound 0.4 µM) was 1.14. It also gave a relative viability (SK-LU-1; first compound 1.265 µM) of 0.901, a relative viability (SK-LU-1; first compound 4 µM) of 0.928 and a relative viability (HCC-44; first compound 0.04 µM) of 0.593. For the same molecule, the relative viability (HCC-44; first compound 0.1265 µM) was 0.61, the relative viability (HCC-44; first compound 0.4 µM) was 0.673 and the relative viability (HCC-44; first compound 1.265 µM) was 0.638. It also gave a relative viability (HCC-44; first compound 4 µM) of 0.683, a relative viability (NCI-H2228; first compound 0.04 µM) of 0.352 and a relative viability (NCI-H2228; first compound 0.1265 µM) of 0.304. It also gave a relative viability (NCI-H2228; first compound 0.4 µM) of 0.314, a relative viability (NCI-H2228; first compound 1.265 µM) of 0.376 and a relative viability (NCI-H2228; first compound 4 µM) of 0.374. It also gave a relative viability (NCI-H2170; first compound 0.04 µM) of 0.328, a relative viability (NCI-H2170; first compound 0.1265 µM) of 0.289 and a relative viability (NCI-H2170; first compound 0.4 µM) of 0.273. For the same molecule, the relative viability (NCI-H2170; first compound 1.265 µM) was 0.292, the relative viability (NCI-H2170; first compound 4 µM) was 0.261 and the relative viability (HCC-827; first compound 0.04 µM) was 0.241. For the same molecule, the relative viability (HCC-827; first compound 0.1265 µM) was 0.232, the relative viability (HCC-827; first compound 1.265 µM) was 0.263 and the relative viability (HCC-827; first compound 4 µM) was 0.231. The relative viability (LOU-NH91; first compound 0.04 µM) was 0.417, the relative viability (LOU-NH91; first compound 0.1265 µM) was 0.378 and the relative viability (LOU-NH91; first compound 0.4 µM) was 0.373. It also gave a relative viability (LOU-NH91; first compound 1.265 µM) of 0.366, a relative viability (LOU-NH91; first compound 4 µM) of 0.361 and a relative viability (NCI-H2087; first compound 0.04 µM) of 0.666. It also gave a relative viability (NCI-H2087; first compound 0.1265 µM) of 0.659, a relative viability (NCI-H2087; first compound 0.4 µM) of 0.685 and a relative viability (NCI-H2087; first compound 1.265 µM) of 0.64. For the same molecule, the relative viability (NCI-H2087; first compound 4 µM) was 0.682, the relative viability (NCI-H1355; first compound 0.04 µM) was 0.965 and the relative viability (NCI-H1355; first compound 0.1265 µM) was 1.01. The relative viability (NCI-H1355; first compound 0.4 µM) was 1.08, the relative viability (NCI-H1355; first compound 1.265 µM) was 0.979 and the relative viability (NCI-H1355; first compound 4 µM) was 0.936. For the same molecule, the relative viability (HCC-366; first compound 0.04 µM) was 0.148, the relative viability (HCC-366; first compound 0.1265 µM) was 0.133 and the relative viability (HCC-366; first compound 0.4 µM) was 0.185. The relative viability (HCC-366; first compound 1.265 µM) was 0.162, the relative viability (HCC-366; first compound 4 µM) was 0.148 and the relative viability (NCI-H596; first compound 0.04 µM) was 0.482. The relative viability (NCI-H596; first compound 0.1265 µM) was 0.488, the relative viability (NCI-H596; first compound 0.4 µM) was 0.524 and the relative viability (NCI-H596; first compound 1.265 µM) was 0.514. For the same molecule, the relative viability (NCI-H596; first compound 4 µM) was 0.47, the relative viability (NCI-H2342; first compound 0.04 µM) was 0.726 and the relative viability (NCI-H2342; first compound 0.1265 µM) was 0.701. The relative viability (NCI-H2342; first compound 0.4 µM) was 0.669, the relative viability (NCI-H2342; first compound 1.265 µM) was 0.769 and the relative viability (NCI-H2342; first compound 4 µM) was 0.773. It also gave a relative viability (NCI-H1395; first compound 0.04 µM) of 0.855, a relative viability (NCI-H1395; first compound 0.1265 µM) of 0.764 and a relative viability (NCI-H1395; first compound 0.4 µM) of 0.767. It also gave a relative viability (NCI-H1395; first compound 4 µM) of 0.842, a relative viability (NCI-H661; first compound 0.04 µM) of 0.868 and a relative viability (NCI-H661; first compound 0.1265 µM) of 0.906. It also gave a relative viability (NCI-H661; first compound 0.4 µM) of 0.996, a relative viability (NCI-H661; first compound 1.265 µM) of 0.905 and a relative viability (NCI-H661; first compound 4 µM) of 0.936.
